Laboratory results taken from patent US20090155279A1, “Pseudomonas Aeruginosa Outer Membrane Protein PA5158” (priority 2005, published 2009).
Values after ≈ are worked out from the molar mass of the structure shown.

Experiments:
[1] = test system: multidrug resistant Pseudomonas aeruginosa MSC06120 strains; assay: Minimum inhibitory concentrations for MSC06120 strains; format: cell-based; conditions: read-out: Minimum inhibitory concentration
[2] = test system: Pseudomonas aeruginosa PA103 strains (ATCC29260); assay: Enhancement of anti-Pseudomonas aeruginosa activity of gentamicin (viable count); format: cell-based; conditions: gentamicin 0.125 μg/ml plus PBS (negative control group), 4 hours at 37° C.
Protocol: Pseudomonas aeruginosa PA103 strains (ATCC29260) were shake cultured overnight at 37° C. in a Mueller-Hinton liquid medium and diluted to 1×10^5 cfu/ml with the same medium. Then, the strains were shake cultured again at 37° C. Two hours later, gentamicin was added at a concentration of 0.125 μg/ml. Likewise, to a negative control group, PBS was added at a concentration of 300 μg/ml. To antibody-added groups, rat anti-PA5158L1 IgG as the monoclonal antibody produced by the hybridoma deposited under the accession No. FERM-BP-10672, rat anti-PA5158L2 IgG as the IgG fraction purified from the KLH-conjugated peptide (SEQ ID No: 6)-immunized rat sera, and rat anti-PA5158 IgG as the IgG fraction purified from the PA5158 recombinant protein-immunized rat sera were added at each concentration of 300 μg/ml. Then, shake culture was carried out at 37° C. for 4 hours, and the number of viable strains in each group was measured.

Row | Compound | MIC [1] [µg/mL] | Number of viable strains [2]
1 | C[C@@H](O)[C@H]1C(=O)N2C(C(=O)O)=C(SCCN=CN)C[C@H]12 [imipenem] | 32 (≈ 107 µM) | –
2 | gentamicin | – | 5.4×10^6 cfu/ml
3 | NCC[C@H](O)C(=O)N[C@@H]1C[C@H](N)[C@@H](O[C@H]2O[C@H](CN)[C@@H](O)[C@H](O)[C@H]2O)[C@H](O)[C@H]1O[C@H]1O[C@H](CO)[C@@H](O)[C@H](N)[C@H]1O [amikacin] | 64 (≈ 109 µM) | –
4 | O=C(O)c1cn(C2CC2)c2cc(N3CCNCC3)c(F)cc2c1=O [ciprofloxacin] | > 256 | –
